Literature values as cited in PMC5278571, “Optimal doses of caspofungin during continuous venovenous hemodiafiltration in critically ill patients” (Critical Care, 2017).
Converted amounts (≈) assume the structure as drawn.

How the values were obtained:
[1] = system: Candida and Aspergillus spp., including Candida parapsilosis; conditions: published MIC90s; cited from earlier work
Description: (§1) Taking into account a MIC of 0.1 mg/L [4], and using the target pharmacokinetics/pharmacodynamics (PK/PD) described for micafungin, we would have reac ...

Candida = conditions: MIC taken for the PK/PD target calculation; cited from earlier work
Description: as §1

For CC[C@H](C)C[C@H](C)CCCCCCCCC(=O)N[C@H]1C[C@@H](O)[C@@H](NCCN)NC(=O)[C@@H]2[C@@H](O)CCN2C(=O)[C@H]([C@H](O)CCN)NC(=O)[C@H]([C@H](O)[C@@H](O)c2ccc(O)cc2)NC(=O)[C@@H]2C[C@@H](O)CN2C(=O)[C@H]([C@@H](C)O)NC1=O [caspofungin], the MIC90 [1] is given as 2 µg/mL (≈ 1.83 µM) and the MIC (Candida) is given as 0.1 µg/mL (≈ 0.0915 µM).
